The target of one assay is T1, P2X3 (Homo sapiens, UniProt P56373).
T1 construct: expressed in transfected cells; host or cells: e.g. HEK293 or 1321N1
T1 sequence (P56373 1-397): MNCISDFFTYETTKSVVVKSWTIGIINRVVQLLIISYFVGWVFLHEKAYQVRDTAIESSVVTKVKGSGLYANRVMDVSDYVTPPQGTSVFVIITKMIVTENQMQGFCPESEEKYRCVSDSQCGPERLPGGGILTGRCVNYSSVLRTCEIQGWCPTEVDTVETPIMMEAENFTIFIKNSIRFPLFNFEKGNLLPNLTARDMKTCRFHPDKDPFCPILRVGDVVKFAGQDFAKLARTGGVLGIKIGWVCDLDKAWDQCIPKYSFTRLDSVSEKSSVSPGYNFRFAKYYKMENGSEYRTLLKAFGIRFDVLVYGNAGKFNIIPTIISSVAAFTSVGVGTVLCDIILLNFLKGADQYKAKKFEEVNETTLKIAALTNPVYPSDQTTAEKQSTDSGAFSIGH
In words: Calcium uptake assay (P2X antagonist assay, inhibition of agonist-induced calcium influx), P2X3. Type of assay: cell-based. The conditions noted are these: inhibition of agonist-induced calcium influx in cells expressing the receptor. An excerpt: (§1) The human P2X2/3 chimera clone is created as described by Neelands et al, and then cloned into an expression vector as above. Receptors are expressed in cells (e.g., HEK293 or 1321N1 (obtained from the ECACC)) via transient transfection using standard lipid mediated transfection, or by creation of stable transfectants for each receptor. For expression of the P2X2/3 heteromeric receptor, the P2X3 expression vector is stably transfected into a cell line already stably expressing P2X2. P2X2/3 heteromer function is isolated using pharmacological methods. Cell lines are maintained in DMEM+5% Glutamax, the appropriate level of selective antibiotic, and 10% heat inactivated FBS.
(§2) Functional activity of compounds at the P2X receptor is determined by measuring their ability to inhibit agonist-induced calcium influx. Compounds are tested for antagonist activity against the P2X2/3 chimera, the P2X3 homomer, or the P2X2/3 heteromer. At the start of each screening day, the agonist EC50 is determined. Compound % inhibition or IC50s are subsequently determined using a pre-determined agonist concentration (EC50-90 depending on cell line) as a stimulus. The agonists used are αβMeATP, ATP, or other ATP analogs. Compounds may be tested at concentrations ranging from 1 pM to 10 μM.
(§3) To test for antagonist activity, cells expressing the appropriate receptor are seeded onto 96 or 384 well plates 18-24 hours prior to assay. […] Plates are incubated at 37° C. and then equilibrated at room temperature. Antagonism of agonist-induced calcium influx is measured using a fluorescent imaging plate reader (e.g. FLIPR^TETRA, Molecular Devices, Sunnyvale, Calif.). The assay comprises two stages: a pre-treatment phase followed by a treatment phase. Compounds may be tested as follows: For the pre-treatment phase, 50 μL of 3× concentration of test compound in HBSS is added to cells containing 100 μL of dye loading media to achieve a final concentration of 1× test compound. For the treatment phase, at a set interval after pre-treatment (1-30 minutes), 50 μl, of 1× test compound plus 4× agonist solution is added, resulting in a final concentration of 1× compound and 1× agonist. […] Responses are measured as (peak fluorescence after agonist addition) minus (baseline fluorescence prior to treatment). Percent inhibition is calculated as follows: […]
(§4) IC50 values are determined by analyzing dose response data in a 4 parameter logistic fit using GraphPad Prizm.

The target of a further assay is T2, P2X2/3 (Homo sapiens, UniProt P56373+Q9UBL9).
T2 construct: expressed in transfected cells; host or cells: cell line stably expressing P2X2, stably transfected with P2X3 (e.g. HEK293 or 1321N1)
T2 sequence (Q9UBL9 1-471): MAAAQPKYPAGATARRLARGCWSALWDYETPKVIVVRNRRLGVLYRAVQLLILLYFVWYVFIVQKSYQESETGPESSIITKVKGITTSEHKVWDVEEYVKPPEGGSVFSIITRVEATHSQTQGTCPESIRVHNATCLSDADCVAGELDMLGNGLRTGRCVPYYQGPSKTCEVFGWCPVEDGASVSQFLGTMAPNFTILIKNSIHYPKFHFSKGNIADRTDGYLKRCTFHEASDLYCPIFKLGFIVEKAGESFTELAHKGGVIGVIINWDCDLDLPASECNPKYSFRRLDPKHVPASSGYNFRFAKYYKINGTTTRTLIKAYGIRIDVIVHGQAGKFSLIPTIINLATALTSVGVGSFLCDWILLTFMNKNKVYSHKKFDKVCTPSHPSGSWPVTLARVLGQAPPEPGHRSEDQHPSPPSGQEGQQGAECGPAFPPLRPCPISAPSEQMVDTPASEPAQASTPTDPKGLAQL
T2 sequence (P56373 1-397): T1 sequence (P56373 1-397)
As to the kind of experiment: Calcium uptake assay (P2X antagonist assay, inhibition of agonist-induced calcium influx), P2X2/3. It is filed as cell-based. Particulars: inhibition of agonist-induced calcium influx in cells expressing the receptor.
Source text: as §1, §2, §3, §4

One may read the IC50 as the concentration that inhibits the measured activity by half. Consider `N#Cc1cc(Cl)ccc1N1CCc2ncnc(NCc3ccc4nccnc4c3)c2C1` [Compound 84, 5-Chloro-2-{4-[(quinoxalin-6-ylmethyl)-amino]-7,8-dihydro-5H-pyrido[4,3-d]pyrimidin-6-yl}-benzonitrile], for which the IC50 is 125 nM at P2X3 and 478 nM at P2X2/3.
Regarding `Cc1ccc(N2CCc3ncnc(NCc4cccc(C#N)c4)c3C2)c(C#N)c1` [Compound 36, 2-[4-(3-Cyano-benzylamino)-7,8-dihydro-5H-pyrido[4,3-d]pyrimidin-6-yl]-5-methyl-benzonitrile], the figures for the IC50 at P2X3 and on P2X2/3 were 183 nM and 1090 nM, respectively.
With `Cc1ccc(N2CCc3ncnc(NCc4ccc(C5CC5)cn4)c3C2)c(C#N)c1` [Compound 30, 2-{4-[(5-Cyclopropyl-pyridin-2-ylmethyl)-amino]-7,8-dihydro-5H-pyrido[4,3-d]pyrimidin-6-yl}-5-methyl-benzonitrile], the figures for the concentration for half-maximal inhibition (IC50) on P2X3 and on P2X2/3 were 236 nM and 377 nM, respectively.
On to `N#Cc1cc(Cl)ccc1N1CCc2ncnc(NCc3cccc(-n4cnnc4)c3)c2C1` [Compound 51, 5-Chloro-2-[4-(3-[1,2,4]triazol-4-yl-benzylamino)-7,8-dihydro-5H-pyrido[4,3-d]pyrimidin-6-yl]-benzonitrile], for which the IC50 at P2X3 came out at 284 nM; on P2X2/3, 1020 nM.
In the same order, the values of `COc1ccc([C@@H](CO)Nc2ncnc3c2CN(c2ccc(Cl)cc2C#N)CC3)cn1` [Compound 35, 5-Chloro-2-{4-[(S)-2-hydroxy-1-(6-methoxy-pyridin-3-yl)-ethylamino]-7,8-dihydro-5H-pyrido[4,3-d]pyrimidin-6-yl}-benzonitrile] are 23 nM and 200 nM.
For `N#Cc1cc(Cl)ccc1N1CCc2ncnc(NCc3ncc(C(F)(F)F)cc3Cl)c2C1` [Compound 16, 5-Chloro-2-{4-[(3-chloro-5-trifluoromethyl-pyridin-2-ylmethyl)-amino]-7,8-dihydro-5H-pyrido[4,3-d]pyrimidin-6-yl}-benzonitrile], the IC50 at P2X3 was 91 nM; on P2X2/3 it was 1130 nM.
In the case of `Cc1ccc(N2CCc3ncnc(N[C@H](CCO)c4ccc(C(F)F)nc4)c3C2)c(C#N)c1` [Compound 22, 2-{4-[(R)-1-(6-Difluoromethyl-pyridin-3-yl)-3-hydroxy-propylamino]-7,8-dihydro-5H-pyrido[4,3-d]pyrimidin-6-yl}-5-methyl-benzonitrile], the values for the concentration for half-maximal inhibition (IC50) at P2X3 and on P2X2/3 were 13 nM and 43 nM, respectively.
As to `N#Cc1cc(Cl)ccc1N1CCc2ncnc(NCc3ccn4ccnc4c3)c2C1` [Compound 44, 5-Chloro-2-{4-[(imidazo[1,2-a]pyridin-7-ylmethyl)-amino]-7,8-dihydro-5H-pyrido[4,3-d]pyrimidin-6-yl}-benzonitrile], the IC50 at P2X3 turned out to be 122 nM; at P2X2/3, 753 nM.
For `CSc1cc(CNc2ncnc3c2CN(c2ccc(C)cc2C#N)CC3)ccc1C` [Compound 49, 5-Methyl-2-[4-(4-methyl-3-methylsulfanyl-benzylamino)-7,8-dihydro-5H-pyrido[4,3-d]pyrimidin-6-yl]-benzonitrile], the IC50 on P2X3 was 474 nM; on P2X2/3, 925 nM.
For the molecule `Cc1ccc(N2CCc3ncnc(NCc4ccc(C)c(I)c4)c3C2)c(C#N)c1` [Compound 55, 2-[4-(3-Iodo-4-methyl-benzylamino)-7,8-dihydro-5H-pyrido[4,3-d]pyrimidin-6-yl]-5-methyl-benzonitrile], the 50% inhibitory concentration (IC50) at P2X3 was 512 nM; on P2X2/3, 1300 nM.
As to `Cc1ccc(N2CCc3ncnc(NCc4ccc5ccccc5n4)c3C2)c(C#N)c1` [Compound 80, 5-Methyl-2-(4-(quinolin-2-ylmethylamino)-7,8-dihydropyrido[4,3-d]pyrimidin-6(5H)-yl)benzonitrile], the 50% inhibitory concentration (IC50) on P2X3 worked out at 156 nM; at P2X2/3 it was 263 nM.
In the same order, the values of `CCc1ccc(CNc2ncnc3c2CN(c2ccc(C)cc2C#N)CC3)cn1` [Compound 33, 2-{4-[(6-Ethyl-pyridin-3-ylmethyl)-amino]-7,8-dihydro-5H-pyrido[4,3-d]pyrimidin-6-yl}-5-methyl-benzonitrile] are 38 nM and 127 nM.
Turning to `Cc1ccc(N2CCc3ncnc(NCc4ccc(Cl)c(S(C)(=O)=O)c4)c3C2)c(C#N)c1` [Compound 71, 2-[4-(4-Chloro-3-methanesulfonyl-benzylamino)-7,8-dihydro-5H-pyrido[4,3-d]pyrimidin-6-yl]-5-methyl-benzonitrile], the figures for the IC50 at P2X3 and on P2X2/3 were 37 nM and 120 nM, respectively.
In the same order, the values of `Cc1ccc(N2CCc3ncnc(NCc4ccc(C)c(S(C)(=O)=O)c4)c3C2)c(C#N)c1` [Compound 59, 2-{4-(3-Methanesulfonyl-4-methyl-benzylamino)-7,8-dihydro-5H-pyrido[4,3-d]pyrimidin-6-yl}-5-methyl-benzonitrile] are 16 nM and 55 nM.
For the molecule `Cc1ccc(N2CCc3ncnc(NCc4ccc(Cl)c(-n5cnnc5)c4)c3C2)c(C#N)c1` [Compound 50, 2-[4-(4-Chloro-3-[1,2,4]triazol-4-yl-benzylamino)-7,8-dihydro-5H-pyrido[4,3-d]pyrimidin-6-yl]-5-methyl-benzonitrile], the IC50 turned out to be 31 nM at P2X3 and 63 nM on P2X2/3.
